Patent US6521446B2, “Biosensor” (Duke University, priority 1997, dated 2003)

Tests used:
[1] = Glucose binding, titration followed by fluorescence change of the conjugated fluorophore
Description: (§1) Measurement of Glucose and Galactose Binding. Sugar binding was determined by measuring changes in fluorescence of the conjugated fluorophores on a SLM-Aminco-Bowman series-2 fluorimeter at 25±1° C. Glucose or galactose (Sigma) was titrated into a 50 nM conjugated protein solution in 0.1 M NaCl, 50 mM phosphate (pH 7.0), which was continuously mixed with a magnetic stirrer. For titrations, the excitation and emission slit widths were set to 4 and 16 nm, respectively (IANBD:λex=469 nm, λcm=540 nm; acrylodan: λex=392 nm, λem=520 nm). Under these conditions the instrument noise was <1% of the fluorescence signal observed in saturating solutions of glucose. Experimentally observed binding curves were fit to a binding isotherm:
(§2) where ΔF is the change in fluorescence, ΔFmax the fluorescence change at saturating concentrations of ligand, Kd the binding constant, and S the concentration of ligand.

[2] = Galactose binding, titration followed by fluorescence change of the conjugated fluorophore
Description: as §1, §2

[3] = Sugar binding Kd of mutant proteins: L-Arabinose; conditions: Table 2, binding-site mutants
Description: as §1, with “Glucose or galactose (Sigma) was titrated into a 50 nM conjugated protein solution in 0.1 M NaCl, 50 mM phosphate (pH 7.0), which was continuously mixed with a magnetic stirrer.” left out
as §2
(§3) (Primary binding surface in E. coli GBP: Asn14, Asn91, His152, Asp154, Arg158, Asn211, Asp236, Asn256; secondary binding surface in E coli GBP: Tyr10, Phe16, Met17, Asn66, Ser112, Ser115, Trp183, Asn210, Met214, Gln261, Tyr295). In order to change the binding constant for glucose, residues in both surfaces have been systematically mutated, either singly or in pairs. The Asp154Ala, Trp183Ala (D154A+W183A) double mutant has a binding constant of 7.2 mM. The dynamic range is thus matched for operating in physiologically relevant glucose concentration ranges.

[4] = Sugar binding Kd of mutant proteins: D-Mannose; conditions: Table 2, binding-site mutants
Description: as §1, with “Glucose or galactose (Sigma) was titrated into a 50 nM conjugated protein solution in 0.1 M NaCl, 50 mM phosphate (pH 7.0), which was continuously mixed with a magnetic stirrer.” left out
as §2, §3

[5] = Fluorescence of glucose-saturated GBP conjugate relative to apoprotein; assay type: binding
Description: as §1, with “isotherm: […]” for “isotherm:”

[6] = Sugar binding Kd of mutant proteins: D-Fucose; conditions: Table 2, binding-site mutants
Description: as §1, with “Glucose or galactose (Sigma) was titrated into a 50 nM conjugated protein solution in 0.1 M NaCl, 50 mM phosphate (pH 7.0), which was continuously mixed with a magnetic stirrer.” left out
as §2, §3

[7] = Sugar binding Kd of mutant proteins: Maltose; conditions: Table 2, binding-site mutants
Description: as §1, with “Glucose or galactose (Sigma) was titrated into a 50 nM conjugated protein solution in 0.1 M NaCl, 50 mM phosphate (pH 7.0), which was continuously mixed with a magnetic stirrer.” left out
as §2, §3

[8] = Sugar binding Kd of mutant proteins: D-Fructose; conditions: Table 2, binding-site mutants
Description: as §1, with “Glucose or galactose (Sigma) was titrated into a 50 nM conjugated protein solution in 0.1 M NaCl, 50 mM phosphate (pH 7.0), which was continuously mixed with a magnetic stirrer.” left out
as §2, §3

[9] = Sugar binding Kd of mutant proteins: Lactose; conditions: Table 2, binding-site mutants
Description: as §1, with “Glucose or galactose (Sigma) was titrated into a 50 nM conjugated protein solution in 0.1 M NaCl, 50 mM phosphate (pH 7.0), which was continuously mixed with a magnetic stirrer.” left out
as §2, §3

[10] = Sugar binding Kd of mutant proteins: D-Xylose; conditions: Table 2, binding-site mutants
Description: as §1, with “Glucose or galactose (Sigma) was titrated into a 50 nM conjugated protein solution in 0.1 M NaCl, 50 mM phosphate (pH 7.0), which was continuously mixed with a magnetic stirrer.” left out
as §2, §3

[11] = Table 2, binding-site mutants, read-out: Kd, D-Glucose
[12] = Table 2, binding-site mutants, read-out: Kd, D-Galactose
[13] = acrylodan conjugate, read-out: Kd(Glc)
[14] = acrylodan conjugate, read-out: Kd(Gal)
[15] = mutants in the allosterically signaling construct 255C, read-out: binding constant for glucose
[16] = IANBD conjugate, read-out: Kd(Glc)
[17] = IANBD conjugate, read-out: Kd(Gal)
[18] = IANBD conjugate, relative to wild-type

| Substance | Kd [1, 11] [µM] | Kd [2, 12] [µM] | Kd [3] [mM] | Kd [4] [mM] | R: ratio of fluorescence of fully saturated GBP (10 mM glucose) to apoprotein ([5]; IANBD conjugate) | R: ratio of fluorescence of fully saturated GBP (10 mM glucose) to apoprotein ([5]; acrylodan conjugate) | other results |
| --- | --- | --- | --- | --- | --- | --- | --- |
| D14A: E. coli GBP binding-site mutant at position 14 | 290 | 390 | 7.25 | 26 | – | – | – |
| P294C: E. coli GBP single cysteine mutant in the hinge region, fluorophore conjugated | – | – | – | – | 1.0 | 0.9 | Kd [1, 13]: 1 µM; Kd [2, 14]: 1 µM |
| W183AY10A: GBP double mutant constructed in the allosterically signaling construct 255C | – | – | – | – | – | – | Kd [1, 15]: 650 µM |
| F16Y: E. coli GBP binding-site mutant | 500 | 1160 | – | – | – | – | Kd [6]: 6000 µM |
| D154A W183A: E. coli GBP double mutant in a 255C background | 7200 | – | – | – | – | – | Kd ([1]; 255C background, read-out: binding constant): 7200 µM; Kd ([1]; glucose, read-out: binding constant): 7200 µM |
| V296C: E. coli GBP single cysteine mutant in the hinge region, fluorophore conjugated | – | – | – | – | 0.7 | 1.0 | Kd [1, 16]: 0.1 µM; Kd [2, 17]: 0.3 µM |
| H152C: E. coli GBP single cysteine mutant in the binding pocket, nonallosteric reporter site, conjugated to IANBD or acrylodan | – | – | – | – | 4.0 | 1.0 | increase in the binding constant for glucose [1, 18]: ~100 fold; Kd [1, 16]: 20 µM; increase in the binding constant for galactose [2, 18]: ~500 fold; Kd [2, 17]: 160 µM; increase in fluorescence ([5]; IANBD conjugate): 4 fold |
| D257C: E. coli GBP single cysteine mutant in the hinge region, fluorophore conjugated | – | – | – | – | 1.6 | 0.8 | Kd [1, 16]: 0.8 µM; Kd [1, 13]: 0.5 µM; Kd [2, 17]: 1.5 µM; Kd [2, 14]: 0.5 µM |
| N91A: E. coli GBP binding-site mutant | 150 | 1080 | – | 16 | – | – | Kd [6]: 1230 µM |
| L255C: E. coli GBP single cysteine mutant in the hinge region of the allosteric flap; allosterically signaling construct 255C | – | – | – | – | 0.8 | 0.5 | Kd [1, 16]: 0.32 µM; Kd [1, 13]: 0.43 µM; Kd [1, 15]: 0.2 µM; Kd [2, 17]: 0.49 µM; Kd [2, 14]: 0.62 µM |
| W183A: GBP single mutant constructed in the allosterically signaling construct 255C | – | – | – | – | – | – | Kd [1, 15]: 20 µM |
| S112A S115A: E. coli GBP binding-site double mutant | 9 | 33 | 1.1 | 1.4 | – | – | Kd [7]: 3.3 mM |
| D154A: E. coli GBP binding-site mutant | 11.5 | 41 | 2.2 | 1.55 | – | – | Kd [6]: 140 µM; Kd [8]: 24 mM |
| Wild-type: wild type E. coli Glucose/Galactose Binding Protein (GBP) [reference compound] | – | 2.4 | 0.09 | 0.105 | – | – | Kd ([1]; wild type GBP, read-out: Kd (glucose)): 0.8 µM; Kd [6]: 340 µM; Kd [7]: 0.4 mM; Kd [9]: 1.3 mM; Kd [10]: 1.4 mM; Kd [8]: 4.7 mM |
| S112A: E. coli GBP binding-site mutant | 7.2 | 24.5 | 0.87 | 0.67 | – | – | Kd [10]: 4.2 mM; Kd [8]: 15 mM |
| acrylodan conjugate at position 255: acrylodan conjugate of the L255C GBP mutant, best allosteric signal transducer in the hinge region | – | – | – | – | – | – | decrease in fluorescence upon ligand binding ([5]; acrylodan conjugate): 2 fold |
| Y10A: E. coli GBP binding-site mutant, constructed in the 255C construct | 54 | 180 | 2.7 | 7.1 | – | – | Kd [1, 15]: 50 µM; Kd [8]: 22 mM |
| N15C: E. coli GBP single cysteine mutant in the binding pocket, nonallosteric reporter site, conjugated to IANBD or acrylodan | – | – | – | – | 0.8 | 0.7 | Kd [1, 16]: 0.13 µM; effect on the sugar binding constants ([1]; acrylodan and IANBD conjugates at the 15 position): do not greatly perturb the sugar binding constants; Kd [1, 13]: 0.17 µM; Kd [2, 17]: 0.1 µM; Kd [2, 14]: 0.15 µM |
| Y10A D154A: E. coli GBP binding-site double mutant | 1050 | 4400 | – | – | – | – | – |
